Source: US9400281B2, “Method of screening of therapeutic agents for K-Ras mutant driven cancers” (PUSAN NATIONAL UNIVERSITY INDUSTRY-UNIVERSITY COOPERATION …, priority 2008, dated 2016)
Several values for one entry are separate records, joined by “and”; a condition that tells them apart may be missing. Identical values can stand only once. Like-named read-outs stand apart in the source and are kept apart here.

Experiments:
[1] = test system: K-Ras mutant cancer cell lines HCT116; test: Western blot of p53 and p21 expression in K-Ras mutant HCT116 cells; format: cell-based; conditions: for fold induction at 10 µM: Homo sapiens, HCT-116, HCT116, 10 μM; for Protein expression ratio of compound to control, p21 / Protein expression ratio of compound to control, p53: HCT116, 10 μM, DMSO control = 1.0
Method: To confirm whether the compounds prepared according to Examples 1 to 5 are effective for inhibiting SNAIL-p53 binding at cell level, the compound was treated into K-Ras mutant cancer cell lines HCT116 and results were analyzed by western blotting.
Oncogenic K-ras suppresses the p53 activity through SNAIL. In the cell line HCT116, SNAIL is always expressed by K-Ras mutation and bound to p53 to suppress normal activity of p53. If the K-Ras mutant cancer cell line HCT116 is treated with a compound for suppressing SNAIL-p53 binding, p53 is normally activated and more expressed, and target genes of p53 are induced.
First, western blotting was performed to detect expression of p53 and p21, which is a target gene of p53. All cell lines used in the present invention were obtained from ATCC, and maintained in 10% FBS-containing RPMI-1640 or DMEM. Protein was extracted with RIPA buffer solution and a membrane loaded with cell lysate through typical SDS-PAGE and gel transfer method was prepared. After blocking with 5% non-fat dry milk, the membrane was subjected into a typical western blot procedure with an antibody corresponding to each gene. Antibodies used herein were obtained from Cell signaling, SantaCruz. p53 activity was confirmed by expression of p21, which is a target gene of p53.

[2] = test system: A549 (K-Ras mutant cancer cell line); test: Cell death rate by tryphan blue cell counting, A549; format: cell-based; conditions: A549 (A546 [sic])
Text: (§1) To confirm that the p53 induction of the compounds is related to K-Ras, A549 and HCT116, which are K-Ras mutant cancer cell lines, and MKN45, which is K-Ras wild type cancer cell line, were used.

SNAIL-p53 binding = test: GST pull down assay of SNAIL-p53 binding (Experimental Example 2); design: species or system human; conditions: FIG. 21
Method: GST pull down assay is a method for identifying a binding degree of two proteins. GST-fused SNAIL protein and p53 recombinant protein were prepared and treated with the compound 5o or 7a to identify a binding degree of GST-SNAIL protein and p53 protein. […] If MDM2 is over-expressed, proteolysis of p53 is induced to suppress apoptosis occurring through target genes of p53, and an […] of cells is induced. Although MDM2 is a representative control factor of p53, MDM2 is not applied to K-Ras mutant disease or mutant p53 containing disease.
To perform GST pull down assay, three human SNAIL fragments (residues 1-90, 91-112, and 113-264) and p53 fragments (1-93 and 93-292) were expressed in E. coli as GST-fusion protein. Each of the fragments was loaded on to GSH-agarose, washed, and then eluted using a buffer containing 20 mM reduced glutathione. The eluted fractions were purified using an anionexchange chromatography (HitrapQ). The recombinant human p53 protein (residues 94-292) was expressed in E. coli using the vector pET28A which contains a hexa-histidine tag at the C terminus. The p53 protein including the hexa-histidine tag was purified using Ni-NTA affinity and a size exclusion chromatography (Superdex 200). To confirm the direct binding between p53 and SNAIL, agarose-bead conjugated GST or GST-SNAIL was incubated with His-p539 (histidine-p53) in PBS for 45 minutes at 4° C.. After washing with PBS, the precipitated protein was subjected into SDS-PAGE and western blotting.

[3] = test system: MKN45 (K-Ras wild type cancer cell line); test: Cell death rate by tryphan blue cell counting, MKN45; format: cell-based
Text: as §1

[4] = test system: HCT116 (K-Ras mutant cancer cell line); test: Cell death rate by tryphan blue cell counting, HCT116; format: cell-based
MDA-MB 468 = test: Western blot of p21 expression in mutant p53 MDA-MB 468 cells; format: cell-based, human; conditions: for Expression ratio of gene to control, p21: DMSO control = 1.0
[5] = DMSO control = 1.0, read-out: Protein expression ratio of compound to control, p21
[6] = DMSO control = 1.0, read-out: Protein expression ratio of compound to control, p53

Structure (SMILES) | melting point | fold induction at 10 µM [1, 5] | fold induction at 10 µM [1, 6] | other results
COc1ccc(OC)c2c1C(=O)C=C(SCCCCCCO)C2=O [Compound 5n, 2-(6-hydroxyhexylthio)-5,8-dimethoxy-1,4-naphthoquinone] | – | 0.2 | 1.1 | –
COc1ccc(OC)c2c1C(=O)C=C(SCCCCO)C2=O [Compound 5m, 2-(4-hydroxybutylthio)-5,8-dimethoxy-1,4-naphthoquinone] | 122 to 123 °C | 0.1 | 0.8 | –
CCCCCCCCCCNC1=CC(=O)c2c(OC)ccc(OC)c2C1=O [Compound 5j, 2-decylamino-5,8-dimethoxy-1,4-naphthoquinone] | 86 to 87 °C | 5 | 1.3 | –
CCCCCCCCCSC1=CC(=O)c2ccccc2C1=O [Compound 1i, 2-nonylthio-1,4-naphthoquinone] | 105 to 106 °C | – | – | –
CCCCCCCCCNC1=CC(=O)c2c(OC)ccc(OC)c2C1=O [Compound 5i, 2-nonylamino-5,8-dimethoxy-1,4-naphthoquinone] | – | 4.6 | 1.6 | –
COc1ccc(OC)c2c1C(=O)C=C(SCCCCCCCCCCC(=O)OCC(C)C)C2=O [Compound 7a, isobutyl-11-(5,8-dimethoxy-1,4-dioxo-1,4-dihydronaphthalene-2-ylthio)undecanoate] | – | 7.2 | 4.2 | Cancer cell death rate of compounds with respect to control ([2]; 5 μM): 23 ± 3.4%; Cancer cell death rate of compounds with respect to control ([2]; 20 μM): 45 ± 2.3%; Binding between GST-SNAIL protein and p53 (SNAIL-p53 binding): substantially weak; Cancer cell death rate of compounds with respect to control ([3]; 5 μM): 1 ± 1.0%; Cancer cell death rate of compounds with respect to control ([3]; 20 μM): 3 ± 2.4%; Cancer cell death rate of compounds with respect to control ([4]; 5 μM): 32 ± 2.1%; Cancer cell death rate of compounds with respect to control ([4]; 20 μM): 57 ± 2.8%
COc1ccc(OC)c2c1C(=O)C=C(SCCC(=O)N1CCN(c3ccccc3)CC1)C2=O [Compound 6a, 5,8-dimethoxy-2-(3-oxo-3-(4-phenylpiperazin-1-yl)propylthio)naphthalene-1,4-dione] | – | 2.8 | 1.9 | –
COc1ccc(OC)c2c1C(=O)C=C(SCCCO)C2=O [Compound 5l, 2-(3-hydroxypropylthio)-5,8-dimethoxy-1,4-naphthoquinone] | – | 0.1 | 0.6 | –
COc1ccc(OC)c2c1C(=O)C=C(SCCCCCCCCCCC(=O)NCC(C)C)C2=O [Compound 7b, 11-(5,8-dimethoxy-1,4-dioxo-1,4-dihydronaphthalene-2-ylthio)-N-isobutyl undecanamide] | – | – | – | Protein expression ratio of compound to control, p21 [1]: 7.0; Protein expression ratio of compound to control, p53 [1]: 4.6
COc1ccc(OC)c2c1C(=O)C=C(SCCCCCCCCCCC(=O)O)C2=O [Compound 5p, 11-(5,8-dimethoxy-1,4-dioxo-naphthalen-2-ylthio)undecanoic acid] | 146 to 147 °C | 0.3 | 1.6 | –
COc1ccc(OC)c2c1C(=O)C=C(SCCO)C2=O [Compound 5k, 2-(2-hydroxyethylthio)-5,8-dimethoxy-1,4-naphthoquinone] | 117 to 118 °C | 0.2 | 0.3 | –
CCCCCCSC1=CC(=O)c2ccccc2C1=O [Compound 1f, 2-hexylthio-1,4-naphthoquinone] | 101 to 102 °C | – | – | –
CCCCCCCCCCSC1=CC(=O)c2ccccc2C1=O [Compound 1j, 2-decylthio-1,4-naphthoquinone] | 101 to 102 °C | – | – | –
CCCCCSC1=CC(=O)c2ccccc2C1=O [Compound 1e, 2-pentylthio-1,4-naphthoquinone] | 111 to 112 °C | – | – | –
CCCCCCCSC1=CC(=O)c2ccccc2C1=O [Compound 1g, 2-heptylthio-1,4-naphthoquinone] | 114 to 115 °C | – | – | –
CCCCCCCCSC1=CC(=O)c2ccccc2C1=O [Compound 1h, 2-octylthio-1,4-naphthoquinone] | 114 to 115 °C | – | – | –
COc1ccc(C2=N[C@@H](c3ccc(Cl)cc3)[C@@H](c3ccc(Cl)cc3)N2C(=O)N2CCNC(=O)C2)c(OC(C)C)c1 [Nutlin-3, reference compound] | – | – | – | Cancer cell death rate of compounds with respect to control ([2]; 5 μM): 11 ± 4.0%; Cancer cell death rate of compounds with respect to control ([2]; 10 μM): 19% and 19 ± 4.5%; Cancer cell death rate of compounds with respect to control ([2]; 20 μM): 25 ± 4.7%; Binding between GST-SNAIL protein and p53 (SNAIL-p53 binding): did not inhibit SNAIL-p53 binding; Expression ratio of gene to control, p21 (MDA-MB 468; MDA-MB 468, 10 μM): 0.9; Expression ratio of gene to control, p21 (MDA-MB 468; MDA-MB 468, 20 μM): 1.2; Expression of p21 (target gene of p53) (MDA-MB 468; p53 mutant-type MDA-MB 468, FIG. 23): did not affect p21; Cancer cell death rate of compounds with respect to control ([3]; 5 μM): 28 ± 2.2%; Cancer cell death rate of compounds with respect to control ([3]; 10 μM): 38% and 38 ± 2.9%; Cancer cell death rate of compounds with respect to control ([3]; 20 μM): 47 ± 2.2%; Cancer cell death rate of compounds with respect to control ([4]; 5 μM): 21 ± 2.4%; Cancer cell death rate of compounds with respect to control ([4]; 10 μM): 32% and 32 ± 2.9%; Cancer cell death rate of compounds with respect to control ([4]; 20 μM): 40 ± 3.1%
COc1ccc(OC)c2c1C(=O)C=C([S+]([O-])CCCCCCCCCCC(=O)OCC(C)C)C2=O (centres unmarked) [Compound 8, isobutyl 11-(5,8-dimethoxyl-1,4-dioxo-1,4-dihydronaphthalene-2-ylsulfinyl) undecanoate] | – | – | – | Protein expression ratio of compound to control, p21 [1]: 1.7; Protein expression ratio of compound to control, p53 [1]: 2.3

Further lines, with some results ahead:

melting point | Structure (SMILES) | fold induction at 10 µM [1, 5] | fold induction at 10 µM [1, 6] | other results
172 to 173 °C | CCNC1=CC(=O)c2c(OC)ccc(OC)c2C1=O [Compound 5b, 2-ethylamino-5,8-dimethoxy-1,4-naphthoquinone] | – | – | –
81 to 82 °C | CCCCCCCCNC1=CC(=O)c2c(OC)ccc(OC)c2C1=O [Compound 5h, 2-octylamino-5,8-dimethoxy-1,4-naphthoquinone] | – | – | –
175 to 176 °C | CCCNC1=CC(=O)c2c(OC)ccc(OC)c2C1=O [Compound 5c, 2-propylamino-5,8-dimethoxy-1,4-naphthoquinone] | – | – | –
102 to 103 °C | CCCCCNC1=CC(=O)c2c(OC)ccc(OC)c2C1=O [Compound 5e, 2-pentylamino-5,8-dimethoxy-1,4-naphthoquinone] | – | – | –
74 to 75 °C | CCCCCCCNC1=CC(=O)c2c(OC)ccc(OC)c2C1=O [Compound 5g, 2-heptylamino-5,8-dimethoxy-1,4-naphthoquinone] | – | – | –
104 to 105 °C | CCCCNC1=CC(=O)c2c(OC)ccc(OC)c2C1=O [Compound 5d, 2-butylamino-5,8-dimethoxy-1,4-naphthoquinone] | – | – | –
83 to 84 °C | CCCCCCNC1=CC(=O)c2c(OC)ccc(OC)c2C1=O [Compound 5f, 2-hexylamino-5,8-dimethoxy-1,4-naphthoquinone] | – | – | –
